Test results as given in patent US11214594B2, “Antimicrobial peptide having synergistic antibacterial effect with antibiotics on multidrug resistant bacteria, and use thereof” (priority 2016, dated 2022).
Values after ≈ are worked out from the molar mass of the structure shown. Where a SMILES comes first, the peptide text is derived from it.

What was measured:
[1] = system: MDREC 1238; assay type: cell-based, Escherichia coli
Description: (§1) For the antibacterial activity, a minimal inhibitory concentration (MIC) of a peptide in which fungus bodies were not split in an MH medium with sufficient nutrients was measured.
(§2) Specifically, the strains described in the following [Table 2] were purchased and diluted with an MH medium such that the number of bacteria was 2×10^6 colony-forming units (CFUs), 100 μl of each of the diluted strains was aliquoted into a 96-well microtiter plate, and then 100 μl of a peptide solution diluted with the MH medium (solution diluted stepwise at 2: 1) was added to each well.

[2] = system: P. aeruginosa; experiment: microbe, parasite or virus in culture; assay type: cell-based, Pseudomonas aeruginosa
In short: (§3)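 MIC read-out = lowest peptide level with no bacterial proliferation. Strains diluted in MH medium to 2×10^6 CFU; peptide twofold serial dilutions in MH added 1:1 in microtiter wells.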

[3] = system: MDRPA 2002; assay type: cell-based, Pseudomonas aeruginosa
Description: as §1, §2

[4] = system: MDRPA 2003; assay type: cell-based, Pseudomonas aeruginosa
Description: as §1, §2

[5] = system: A. baumannii; experiment: microbe, parasite or virus in culture; assay type: cell-based, Acinetobacter baumannii
In short: as §3

[6] = system: MDRAB 12035; experiment: microbe, parasite or virus in culture; assay type: cell-based, Acinetobacter baumannii
In short: as §3

[7] = system: S. typhimurium; experiment: microbe, parasite or virus in culture; assay type: cell-based, Salmonella typhimurium
In short: as §3

[8] = system: MDRST 8009; assay type: cell-based, Salmonella typhimurium; settings: agent alone
Description: as §1, §2

[9] = system: S. epidermidis; experiment: microbe, parasite or virus in culture; assay type: cell-based, Staphylococcus epidermidis
In short: as §3

[10] = system: MRSA 3114; assay type: cell-based, Staphylococcus aureus; settings: 3114
Description: as §1, §2

[11] = system: MRSA 3126; assay type: cell-based, Staphylococcus aureus; settings: 3126
Description: as §1, §2

[12] = system: MDRAB 12035; experiment: MIC of antibiotic during combined treatment with antimicrobial peptide; assay type: cell-based, Acinetobacter baumannii
Description: Specifically, the strains described in [Table 2] were prepared and diluted with an MH medium such that the number of bacteria was 2×10^6 colony-forming units (CFUs) per 1 ml, 100 μl of the diluted strains was each aliquoted into a 96-well microtiter plate, and then 50 μl of a peptide solution diluted with the MH medium from the MIC value (solution diluted stepwise at 2: 1) was added to each well. Thereafter, the MIC value of each mixed solution was determined by diluting the antibiotic solution with the MH medium, adding 50 μl of the diluted solution to each well, and performing an experiment even under a reversed condition.

[13] = peptide treatment concentration 1 μg/ml
[14] = peptide treatment concentration 2 μg/ml
[15] = peptide treatment concentration 4 μg/ml
[16] = peptide treatment concentration 6 μg/ml
[17] = peptide treatment concentration 8 μg/ml
[18] = peptide treatment concentration 16 μg/ml
[19] = peptide treatment concentration 32 μg/ml
[20] = peptide treatment concentration 64 μg/ml

CC[C@H](C)[C@H](NC(=O)[C@H](CCCCN)NC(=O)[C@H](Cc1c[nH]c2ccccc12)NC(=O)[C@@H](N)CCCNC(=N)N)C(=O)N[C@@H](Cc1ccccc1)C(=O)N[C@@H](CCCCN)C(=O)N[C@@H](CCCCN)C(=O)N[C@H](C(=O)N1CCC[C@H]1C(=O)N[C@@H](CCCCN)C(=O)N[C@@H](Cc1ccccc1)C(=O)N[C@@H](CC(C)C)C(=O)N[C@@H](Cc1c[nH]cn1)C(=O)N[C@@H](CO)C(=O)N[C@@H](CC(C)C)C(=O)N[C@@H](CCCCN)C(=O)N[C@@H](CCCCN)C(=O)N[C@@H](Cc1ccccc1)C(N)=O)[C@@H](C)CC [PapMA-6, RWK IFK KIP KFL HSL KKF-NH2] (H-RWKIFKKIPKFLHSLKKF-NH2; N-terminus assumed)
Minimal inhibitory concentration MIC [1]: 64 µg/mL (≈ 27.3 µM) | Minimal inhibitory concentration MIC [2]: 16 µg/mL (≈ 6.83 µM) | Antibacterial activity (in words) ([2]; P. aeruginosa and S. typhimurium): significantly increased | Minimal inhibitory concentration MIC [3]: 32 µg/mL (≈ 13.7 µM) | Minimal inhibitory concentration MIC [4]: 32 µg/mL (≈ 13.7 µM) | Minimal inhibitory concentration MIC [5]: 32 µg/mL (≈ 13.7 µM) | Peptide MIC, peptide alone [5]: 32 µg/mL | Minimal inhibitory concentration MIC [6]: 64 µg/mL (≈ 27.3 µM) | Peptide MIC, peptide alone [6]: 64 µg/mL | Minimal inhibitory concentration MIC [7]: 16 µg/mL (≈ 6.83 µM) | Minimal inhibitory concentration MIC [8]: 64 µg/mL (≈ 27.3 µM) | Minimal inhibitory concentration MIC [9]: >128 µg/mL | Minimal inhibitory concentration MIC [10]: >128 µg/mL | Minimal inhibitory concentration MIC [11]: >128 µg/mL | Erythromycin MIC during combined treatment with peptide [12, 13]: 16 µg/mL | Linezolid MIC during combined treatment with peptide [12, 13]: 128 µg/mL | Vancomycin MIC during combined treatment with peptide [12, 13]: >128 µg/mL | Erythromycin MIC during combined treatment with peptide [12, 14]: 8 µg/mL | Linezolid MIC during combined treatment with peptide [12, 14]: 32 µg/mL | Vancomycin MIC during combined treatment with peptide [12, 14]: 128 µg/mL | Erythromycin MIC during combined treatment with peptide [12, 15]: 4 µg/mL | Linezolid MIC during combined treatment with peptide [12, 15]: 16 µg/mL | Vancomycin MIC during combined treatment with peptide [12, 15]: 64 µg/mL | Erythromycin MIC during combined treatment with peptide [12, 16]: 0.5 µg/mL | Linezolid MIC during combined treatment with peptide [12, 16]: 8 µg/mL | Vancomycin MIC during combined treatment with peptide [12, 16]: 8 µg/mL | Erythromycin MIC during combined treatment with peptide [12, 17]: 0.25 µg/mL | Linezolid MIC during combined treatment with peptide [12, 17]: 4 µg/mL | Vancomycin MIC during combined treatment with peptide [12, 17]: 8 µg/mL | Erythromycin MIC during combined treatment with peptide [12, 18]: 0.125 µg/mL | Linezolid MIC during combined treatment with peptide [12, 18]: 2 µg/mL | Vancomycin MIC during combined treatment with peptide [12, 18]: 4 µg/mL | Erythromycin MIC during combined treatment with peptide [12, 19]: 0.0625 µg/mL | Linezolid MIC during combined treatment with peptide [12, 19]: 1 µg/mL | Vancomycin MIC during combined treatment with peptide [12, 19]: 2 µg/mL | Erythromycin MIC during combined treatment with peptide [12, 20]: 0 µg/mL | Linezolid MIC during combined treatment with peptide [12, 20]: 0 µg/mL | Vancomycin MIC during combined treatment with peptide [12, 20]: 0 µg/mL

CC[C@H](C)[C@H](NC(=O)[C@H](CCCCN)NC(=O)[C@H](Cc1c[nH]c2ccccc12)NC(=O)[C@@H](N)CCCNC(=N)N)C(=O)N[C@@H](Cc1ccccc1)C(=O)N[C@@H](CCCCN)C(=O)N[C@@H](CCCCN)C(=O)N[C@H](C(=O)N1CCC[C@H]1C(=O)N[C@@H](CCCCN)C(=O)N[C@@H](CC(C)C)C(=O)N[C@@H](CC(C)C)C(=O)N[C@@H](Cc1c[nH]cn1)C(=O)N[C@@H](CO)C(=O)N[C@@H](C)C(=O)N[C@@H](CCCCN)C(=O)N[C@@H](CCCCN)C(=O)N[C@@H](Cc1c[nH]c2ccccc12)C(N)=O)[C@@H](C)CC [PapMA-9, RWK IFK KIP KLL HSA KKW-NH2] (H-RWKIFKKIPKLLHSAKKW-NH2; N-terminus assumed)
Minimal inhibitory concentration MIC [1]: 64 µg/mL (≈ 27.7 µM) | Minimal inhibitory concentration MIC [2]: 8 µg/mL (≈ 3.47 µM) | Minimal inhibitory concentration MIC [3]: 16 µg/mL (≈ 6.94 µM) | Minimal inhibitory concentration MIC [4]: 16 µg/mL (≈ 6.94 µM) | Minimal inhibitory concentration MIC [5]: 32 µg/mL (≈ 13.9 µM) | Peptide MIC, peptide alone [5]: 32 µg/mL | Minimal inhibitory concentration MIC [6]: 64 µg/mL (≈ 27.7 µM) | Peptide MIC, peptide alone [6]: 64 µg/mL | Minimal inhibitory concentration MIC [7]: 32 µg/mL (≈ 13.9 µM) | Minimal inhibitory concentration MIC [8]: 64 µg/mL (≈ 27.7 µM) | Minimal inhibitory concentration MIC [9]: >128 µg/mL | Minimal inhibitory concentration MIC [10]: >128 µg/mL | Minimal inhibitory concentration MIC [11]: >128 µg/mL | Erythromycin MIC during combined treatment with peptide [12, 13]: 16 µg/mL | Linezolid MIC during combined treatment with peptide [12, 13]: >128 µg/mL | Vancomycin MIC during combined treatment with peptide [12, 13]: >128 µg/mL | Erythromycin MIC during combined treatment with peptide [12, 14]: 16 µg/mL | Linezolid MIC during combined treatment with peptide [12, 14]: 64 µg/mL | Vancomycin MIC during combined treatment with peptide [12, 14]: 128 µg/mL | Erythromycin MIC during combined treatment with peptide [12, 15]: 4 µg/mL | Linezolid MIC during combined treatment with peptide [12, 15]: 32 µg/mL | Vancomycin MIC during combined treatment with peptide [12, 15]: 64 µg/mL | Erythromycin MIC during combined treatment with peptide [12, 16]: 0.5 µg/mL | Linezolid MIC during combined treatment with peptide [12, 16]: 16 µg/mL | Vancomycin MIC during combined treatment with peptide [12, 16]: 16 µg/mL | Erythromycin MIC during combined treatment with peptide [12, 17]: 0.25 µg/mL | Linezolid MIC during combined treatment with peptide [12, 17]: 4 µg/mL | Vancomycin MIC during combined treatment with peptide [12, 17]: 8 µg/mL | Erythromycin MIC during combined treatment with peptide [12, 18]: 0.25 µg/mL | Linezolid MIC during combined treatment with peptide [12, 18]: 4 µg/mL | Vancomycin MIC during combined treatment with peptide [12, 18]: 8 µg/mL | Erythromycin MIC during combined treatment with peptide [12, 19]: 0.125 µg/mL | Linezolid MIC during combined treatment with peptide [12, 19]: 2 µg/mL | Vancomycin MIC during combined treatment with peptide [12, 19]: 2 µg/mL | Erythromycin MIC during combined treatment with peptide [12, 20]: 0 µg/mL | Linezolid MIC during combined treatment with peptide [12, 20]: 0 µg/mL | Vancomycin MIC during combined treatment with peptide [12, 20]: 0 µg/mL
